According to PubChem BioAssay (NCI):
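Method: 48-hour compound exposure of cells in 96-well plates, five concentrations, linear interpolation of endpoints. TGI: total growth inhibition.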

These compounds were tested on RXF 393 renal (assay: NCI anticancer screen, dose series, 48 h).
With `C/C(=N\N=C1/C(=O)OC(c2ccccc2)=C1C(=O)c1ccccc1)c1ccc([N+](=O)[O-])cc1` the TGI was > 100 µM. `O=S(=O)(O)C(CO)c1ccccc1` (stereo not drawn) (tested in a mixture with another compound) was tested, and the TGI was > 100 µM. For `O=C1c2ccccc2C(=O)N1n1c(Cc2ccc([N+](=O)[O-])cc2)n[nH]c1=O`, the TGI was > 100 µM. With `Cc1nc(C)c(N2CCN([N+](=O)[O-])CC2)c(=O)[nH]1` the TGI was > 100 µM. `Cc1nn(-c2ccccc2)c2c1C(c1cc3ccccc3nc1Cl)NC(=O)N2` (stereo not drawn) showed a TGI of 55.9 µM. In the case of `COc1ccc(C2OC(c3ccncc3)=NN2C)cc1F` (stereo not drawn), the TGI is reported as > 100 µM. With `Cc1cc(/N=C/c2ccc(N(C)C)cc2)n(-c2ccccc2)n1` the TGI was > 100 µM. With `O=C(/C=C/c1ccccc1)Oc1ccc(C(=O)/C=C/c2ccccc2)cc1` the TGI was > 60.6 µM. With `COC(=O)C(Cc1ccc2c(c1)CCC2)Cc1ccc2c(c1)CCC2` the TGI was > 100 µM. With `C/C(C[n+]1ccccc1)=N\N=C(N)N` the TGI was > 100 µM. In the case of `NCCCN1c2ccccc2Sc2ccc(Cl)cc21`, the TGI is reported as > 10 µM. With `CCOC(=O)c1cccc(N=Nc2nc[nH]c2/C=C/C(=O)OC)c1` the TGI was > 100 µM. For `Clc1ccc(-c2nnc3sc4nc5ccccc5c-4nn23)c(Cl)c1`, the TGI was > 100 µM. For `C=C(C(=O)OCC)C(=O)OCC`, the TGI was > 100 µM. `N#CC(C#N)=C1SC(=Nc2ccccc2)C(=Nc2ccccc2)N1c1ccccc1` showed a TGI of 45.5 µM. `Cc1c(O)nc(-n2[nH]c3c(c2=O)CCCC3)[nH]c1=O` was tested, and the TGI was > 100 µM. In the case of `C=CCc1cc(-c2nc(=S)[nH][nH]2)ccc1N=NNc1ccc(C(=O)O)cc1`, the TGI is reported as > 100 µM. `COC(C)(C)C1(O)CC[C@@H](C)CC1=O` (stereo partly drawn) was tested, and the TGI was > 100 µM. `Nc1ccc(N=Nc2c(S(=O)(=O)O)cc3ccccc3c2S(=O)(=O)O)cc1` was tested, and the TGI was > 100 µM.

These compounds were tested on PC-3 prostate (assay: NCI anticancer screen, dose series, 48 h).
Compound `CC1=CCC([C@@](C)(O)CCCC(C)(C)N=C=S)CC1` (stereo partly drawn) has a TGI of 33 µM. Compound `C=C1C(=O)CC2C1CC(=O)/C(C)=C/CCC(C)(O)C2O` (stereo not drawn) has a TGI of 23.3 µM. With `C[C@H](CCC(=O)O)[C@H]1CC[C@H]2[C@@H]3C(=O)C[C@@H]4C[C@H](O)CC[C@]4(C)[C@H]3C[C@H](O)[C@]12C` the TGI was > 100 µM. `O=C(O)c1ccccc1CC(Cc1ccc2c(c1)CCC2)C(=O)O` (stereo not drawn) was tested, and the TGI was > 100 µM. For `Cn1c(SCc2ccc(F)cc2)nnc1C12CC3CC(CC(C3)C1)C2`, the TGI was > 100 µM. With `COC(=O)/C=C\C(C#N)(C#N)N=Cc1ccc(C)cc1` the TGI was 15.2 µM. With `CC(c1ccccc1)N1CCN(C(C)c2ccccc2)CC1` (stereo not drawn) the TGI was > 100 µM. `COc1ccc(N2C(=O)CC(=O)N(NC(=O)C(C)Oc3ccccc3C)C2=S)cc1` (stereo not drawn) was tested, and the TGI was > 100 µM. `O=C1OC(C2Cc3ccc4ccccc4c3C2=O)c2ccccc21` (stereo not drawn) was tested, and the TGI was > 100 µM. For `C/C(=N\N=C1/C(=O)OC(c2ccccc2)=C1C(=O)c1ccccc1)c1ccc([N+](=O)[O-])cc1`, the TGI was > 100 µM. For `O=S(=O)(O)C(CO)c1ccccc1` (stereo not drawn) (tested in a mixture with another compound), the TGI was > 100 µM. With `O=C1c2ccccc2C(=O)N1n1c(Cc2ccc([N+](=O)[O-])cc2)n[nH]c1=O` the TGI was > 100 µM. `Cc1nc(C)c(N2CCN([N+](=O)[O-])CC2)c(=O)[nH]1` was tested, and the TGI was > 100 µM. `Cc1nn(-c2ccccc2)c2c1C(c1cc3ccccc3nc1Cl)NC(=O)N2` (stereo not drawn) showed a TGI of 43.7 µM. In the case of `COc1ccc(C2OC(c3ccncc3)=NN2C)cc1F` (stereo not drawn), the TGI is reported as > 100 µM. With `Cc1cc(/N=C/c2ccc(N(C)C)cc2)n(-c2ccccc2)n1` the TGI was > 100 µM. `O=C(/C=C/c1ccccc1)Oc1ccc(C(=O)/C=C/c2ccccc2)cc1` was tested, and the TGI was > 64.9 µM. For `COC(=O)C(Cc1ccc2c(c1)CCC2)Cc1ccc2c(c1)CCC2`, the TGI was > 100 µM. For `C/C(C[n+]1ccccc1)=N\N=C(N)N`, the TGI was > 100 µM. With `NCCCN1c2ccccc2Sc2ccc(Cl)cc21` the TGI was > 10 µM. In the case of `CCOC(=O)c1cccc(N=Nc2nc[nH]c2/C=C/C(=O)OC)c1`, the TGI is reported as > 100 µM. `O=C(O)CN1CCN2CCCCCN(CC1)CCN(CC(=O)O)CC2` was tested, and the TGI was > 100 µM. With `Clc1ccc(-c2nnc3sc4nc5ccccc5c-4nn23)c(Cl)c1` the TGI was > 100 µM. For `C=C(C(=O)OCC)C(=O)OCC`, the TGI was > 100 µM. With `N#CC(C#N)=C1SC(=Nc2ccccc2)C(=Nc2ccccc2)N1c1ccccc1` the TGI was 25.1 µM. In the case of `CSC1=N/C(=C\c2ccc(C)cc2)C(=O)N1CN1CCCCC1`, the TGI is reported as > 100 µM. In the case of `O=C1c2cc(-c3ccccc3)cnc2S(=O)(=O)N1c1ccc(Br)cc1`, the TGI is reported as > 100 µM. In the case of `O=C(NCP(=O)(Oc1ccccc1)Oc1ccccc1)OCc1ccccc1`, the TGI is reported as > 100 µM. With `Cc1c(O)nc(-n2[nH]c3c(c2=O)CCCC3)[nH]c1=O` the TGI was > 100 µM. `C=CCc1cc(-c2nc(=S)[nH][nH]2)ccc1N=NNc1ccc(C(=O)O)cc1` was tested, and the TGI was > 100 µM. In the case of `O=C(O)CN1CCNCCN(CC(=O)O)CCN(CC(=O)O)CCNCC1`, the TGI is reported as > 100 µM. `COC(C)(C)C1(O)CC[C@@H](C)CC1=O` (stereo partly drawn) was tested, and the TGI was > 100 µM. With `Nc1ccc(N=Nc2c(S(=O)(=O)O)cc3ccccc3c2S(=O)(=O)O)cc1` the TGI was > 100 µM.

Each compound was assayed on SF-539 CNS (assay: NCI anticancer screen, dose series, 48 h).
In the case of `CC1=CCC([C@@](C)(O)CCCC(C)(C)N=C=S)CC1` (stereo partly drawn), the TGI is reported as 33.3 µM. `C=C1C(=O)CC2C1CC(=O)/C(C)=C/CCC(C)(O)C2O` (stereo not drawn) was tested, and the TGI was > 24.4 µM. With `C[C@H](CCC(=O)O)[C@H]1CC[C@H]2[C@@H]3C(=O)C[C@@H]4C[C@H](O)CC[C@]4(C)[C@H]3C[C@H](O)[C@]12C` the TGI was > 100 µM. For `O=C(O)c1ccccc1CC(Cc1ccc2c(c1)CCC2)C(=O)O` (stereo not drawn), the TGI was > 100 µM. With `Cn1c(SCc2ccc(F)cc2)nnc1C12CC3CC(CC(C3)C1)C2` the TGI was 65.1 µM. Work on `COC(=O)/C=C\C(C#N)(C#N)N=Cc1ccc(C)cc1` yielded a TGI of 10.9 µM. In the case of `COc1ccc(N2C(=O)CC(=O)N(NC(=O)C(C)Oc3ccccc3C)C2=S)cc1` (stereo not drawn), the TGI is reported as > 100 µM. With `O=C1OC(C2Cc3ccc4ccccc4c3C2=O)c2ccccc21` (stereo not drawn) the TGI was 56.5 µM. For `C/C(=N\N=C1/C(=O)OC(c2ccccc2)=C1C(=O)c1ccccc1)c1ccc([N+](=O)[O-])cc1`, the TGI was > 100 µM. `O=S(=O)(O)C(CO)c1ccccc1` (stereo not drawn) (tested in a mixture with another compound) was tested, and the TGI was > 100 µM. With `O=C1c2ccccc2C(=O)N1n1c(Cc2ccc([N+](=O)[O-])cc2)n[nH]c1=O` the TGI was > 100 µM. In the case of `Cc1nc(C)c(N2CCN([N+](=O)[O-])CC2)c(=O)[nH]1`, the TGI is reported as > 100 µM. With `Cc1nn(-c2ccccc2)c2c1C(c1cc3ccccc3nc1Cl)NC(=O)N2` (stereo not drawn) the TGI was 45.9 µM. `COc1ccc(C2OC(c3ccncc3)=NN2C)cc1F` (stereo not drawn) was tested, and the TGI was > 100 µM. With `Cc1cc(/N=C/c2ccc(N(C)C)cc2)n(-c2ccccc2)n1` the TGI was > 100 µM. Work on `O=C(/C=C/c1ccccc1)Oc1ccc(C(=O)/C=C/c2ccccc2)cc1` yielded a TGI of 22.3 µM. `COC(=O)C(Cc1ccc2c(c1)CCC2)Cc1ccc2c(c1)CCC2` was tested, and the TGI was > 100 µM. In the case of `NCCCN1c2ccccc2Sc2ccc(Cl)cc21`, the TGI is reported as > 10 µM. `CCOC(=O)c1cccc(N=Nc2nc[nH]c2/C=C/C(=O)OC)c1` was tested, and the TGI was > 100 µM. `O=C(O)CN1CCN2CCCCCN(CC1)CCN(CC(=O)O)CC2` was tested, and the TGI was > 100 µM. With `Clc1ccc(-c2nnc3sc4nc5ccccc5c-4nn23)c(Cl)c1` the TGI was > 100 µM. For `C=C(C(=O)OCC)C(=O)OCC`, the TGI was > 100 µM. With `N#CC(C#N)=C1SC(=Nc2ccccc2)C(=Nc2ccccc2)N1c1ccccc1` the TGI was 22.5 µM. `O=C1c2cc(-c3ccccc3)cnc2S(=O)(=O)N1c1ccc(Br)cc1` was tested, and the TGI was 87.2 µM. For `O=C(O)CN1CCNCCN(CC(=O)O)CCN(CC(=O)O)CCNCC1`, the TGI was > 100 µM. `COC(C)(C)C1(O)CC[C@@H](C)CC1=O` (stereo partly drawn) was tested, and the TGI was > 100 µM.
